Target: MAPKAPK2 (Homo sapiens, UniProt P49137)
Test: HTS ATP-utilizing enzyme assay, off-chip mobility-shift (Caliper HTS 250)
Type: biochemical
Details: test compound 10 μM, kinase listed = active (greater than six-sigma from the mean activity of inactive compounds)
Description: The following procedures describe the reagent and plate preparation for a HTS of an ATP-utilizing enzyme, such as a protein kinase, run in an off-chip mobility-shift assay format. The following provides an HTS protocol for running a protein kinase HTS screen on a Caliper HTS 250 microfluidics system. The following parameters are dependent on the protein kinase used and can be determined by one skilled in the art as part of a typical assay development process. For example, the peptide substrate used can be identified from the current literature, by screening a peptide library of potential protein kinase substrates, or by other applicable means accepted in the field.
The following table provides typical screen assay parameters appropriate for a Caliper HTS 250 microfluidics system.
The reagents and buffers listed in the following table are generally applicable for developing and running an HTS screen on a human protein kinase using the Caliper HTS 250 system.
The following reagents were prepared using the previously described buffers.
A 2× Master Buffer solution was prepared by combining 200 mL of 1 M HEPES, pH 7.5, 2 mL of 10% Triton X-100, 20 mL of 10% BSA, and 778 mL of H2O.
A TCB Buffer solution was prepared by combining 125 mL of 2× Master Buffer, 10 mL of 0.5 M EDTA, 6.25 mL of 4% coating reagent, 1.01 mL of 100% DMSO, and 107.74 mL H2O.
Assays to determine the kinase inhibitory activity of compounds of the present disclosure were performed using a Caliper HTS 250 microfluidics device, Greiner U-bottom assay plates, a Multidrop for transfer of reagents, and Biomek FX (AMNCBM03) software. Initially, 2.4 μL of a 1 mM solution of a test compound in 100% DMSO was added to a well of the Greiner U-bottom plate. A single Greiner U-bottom plate having 24×16 wells could include multiple test compounds. […] Using the Biomek FX, 10 μL of 0.5 M EDTA was added by the span-8 to wells, indicated as 100% Control and 2.4 μL of 100% DMSO was added by the span-8 to wells, indicated as 0% Control. […] The total reaction volume in each well was 25 μL, and the concentration of the test compound was 10 μM. The assay plate was incubated for 2.5 hrs at 20° C. to 22° C. […] The inhibition of the ATP-utilizing enzyme, such as a particular protein kinase, was determined by measuring the ratio of the peptide substrate to phosphorylated product for each well of the assay plate using the Caliper HTS 250 system.
The use of six-sigma statistical limits represents a conservative method for declaring potential hits among targets. The six-sigma activity, as well as the mean population activity, can be different for each target enzyme.

Chain of MAPKAPK2 (P49137 whole entry): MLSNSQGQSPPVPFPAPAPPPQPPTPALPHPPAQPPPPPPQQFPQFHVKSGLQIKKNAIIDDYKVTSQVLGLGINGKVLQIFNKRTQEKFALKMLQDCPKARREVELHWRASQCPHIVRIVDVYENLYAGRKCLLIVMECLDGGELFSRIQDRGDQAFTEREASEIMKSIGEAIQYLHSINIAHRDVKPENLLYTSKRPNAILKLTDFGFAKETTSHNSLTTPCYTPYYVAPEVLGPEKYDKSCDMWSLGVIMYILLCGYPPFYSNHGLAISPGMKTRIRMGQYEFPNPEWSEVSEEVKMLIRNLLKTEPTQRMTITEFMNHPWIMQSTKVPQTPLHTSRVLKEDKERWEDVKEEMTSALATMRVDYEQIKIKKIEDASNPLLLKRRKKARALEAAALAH

Activity | SMILES
MAPKAPK2 | c1ccc(-c2ccc3nccc(Nc4ccc(N5CCN(C6CCCCC6)CC5)cc4)c3c2)cc1 [N-(4-(4-cyclohexylpiperazin-1-yl)phenyl)-6-phenylquinolin-4-amine]
MAPKAPK2 | CN(C)C1CCN(c2ccc(Nc3ccnc4ccc(-c5cccc(Cl)c5)cc34)cc2)C1 (centres unmarked) [6-(3-chlorophenyl)-N-(4-(3-(dimethylamino)pyrrolidin-1-yl)phenyl)quinolin-4-amine]
MAPKAPK2 | COc1ccc(-c2ccc3nccc(Nc4ccc(N5CCN(C6CCCCC6)CC5)cc4)c3c2)cc1 [N-(4-(4-cyclohexylpiperazin-1-yl)phenyl)-6-(4-methoxyphenyl)quinolin-4-amine]
MAPKAPK2 | CN(C)C1CCN(c2ccc(Nc3ccnc4ccc(-c5ccc(Cl)c(F)c5)cc34)cc2)C1 (centres unmarked) [6-(4-chloro-3-fluorophenyl)-N-(4-(3-(dimethylamino)pyrrolidin-1-yl)phenyl)quinolin-4-amine]
MAPKAPK2 | Cc1ccc(-c2ccc3nccc(Nc4ccc(N5CCC(N(C)C)C5)cc4)c3c2)cc1C (centres unmarked) [N-(4-(3-(dimethylamino)pyrrolidin-1-yl)phenyl)-6-(3,4-dimethylphenyl)quinolin-4-amine]
MAPKAPK2 | CN(C)C1CCN(c2ccc(Nc3ccnc4ccc(-c5ccc6cc[nH]c6c5)cc34)cc2)C1 (centres unmarked) [N-(4-(3-(dimethylamino)pyrrolidin-1-yl)phenyl)-6-(1H-indol-6-yl)quinolin-4-amine]
MAPKAPK2 | CN(C)C1CCN(c2ccc(Nc3ccnc4ccc(-c5csc6ccccc56)cc34)cc2)C1 (centres unmarked) [6-(benzo[b]thiophen-3-yl)-N-(4-(3-(dimethylamino)pyrrolidin-1-yl)phenyl)quinolin-4-amine]
MAPKAPK2 | CCCCN1CCN(c2ccc(Nc3ccnc4ccc(-c5ccc(OC)cc5)cc34)cc2)CC1 [N-(4-(4-butylpiperazin-1-yl)phenyl)-6-(4-methoxyphenyl)quinolin-4-amine]
MAPKAPK2 | CN1CCC(N(C)c2ccc(Nc3ccnc4ccc(-c5cnc6ccccc6c5)cc34)cc2)C1 (centres unmarked) [N1-(3,6′-biquinolin-4′-yl)-N4-methyl-N4-(1-methylpyrrolidin-3-yl)benzene-1,4-diamine]
MAPKAPK2 | OCCN1CCN(c2ccc(Nc3ccnc4ccc(-c5ccccc5)cc34)cc2)CC1 [2-(4-(4-(6-phenylquinolin-4-ylamino)phenyl)piperazin-1-yl)ethanol]
MAPKAPK2 | CCCCN1CCN(c2ccc(Nc3ccnc4ccc(-c5ccc(C#N)cc5)cc34)cc2)CC1 [4-(4-(4-(4-butylpiperazin-1-yl)phenylamino)quinolin-6-yl)benzonitrile]
MAPKAPK2 | CC1CCN(c2ccc(Nc3ccnc4ccc(-c5ccc(C#N)cc5)cc34)cc2)CC1 [4-(4-(4-(4-methylpiperidin-1-yl)phenylamino)quinolin-6-yl)benzonitrile]
MAPKAPK2 | CCC(CC)N1CCN(c2ccc(Nc3ccnc4ccc(-c5ccc(C#N)cc5)cc34)cc2)CC1 [4-(4-(4-(4-(pentan-3-yl)piperazin-1-yl)phenylamino)quinolin-6-yl)benzonitrile]
MAPKAPK2 | CN(C)[C@H]1CCN(c2ccc(Nc3ccnc4ccc(-c5ccc(Cl)cc5)cc34)cc2)C1 [(S)-6-(4-chlorophenyl)-N-(4-(3-(dimethylamino)pyrrolidin-1-yl)phenyl)quinolin-4-amine]
MAPKAPK2 | CN(C)C1CCN(c2ccc(Nc3ccnc4ccc(-c5ccc(Cl)c(Cl)c5)cc34)cc2)C1 (centres unmarked) [6-(3,4-dichlorophenyl)-N-(4-(3-(dimethylamino)pyrrolidin-1-yl)phenyl)quinolin-4-amine]
MAPKAPK2 | CN1CCN(c2ccc(Nc3ccnc4ccc(-c5ccc(C(F)(F)F)cc5C(F)(F)F)cc34)cc2)CC1 [6-(2,4-bis(trifluoromethyl)phenyl)-N-(4-(4-methylpiperazin-1-yl)phenyl)quinolin-4-amine]
MAPKAPK2 | COc1ccc(-c2ccc3nccc(Nc4ccc(N5CCN(CCC#N)CC5)cc4)c3c2)cc1 [3-(4-(4-(6-(4-methoxyphenyl)quinolin-4-ylamino)phenyl)piperazin-1-yl)propanenitrile]
MAPKAPK2 | CN(C)C1CCN(c2ccc(Nc3ccnc4ccc(-c5ccc(OC(F)F)cc5)cc34)cc2)C1 (centres unmarked) [6-(4-(difluoromethoxy)phenyl)-N-(4-(3-(dimethylamino)pyrrolidin-1-yl)phenyl)quinolin-4-amine]
MAPKAPK2 | CCCN(c1ccc(N2CCN(C)CC2)cc1)c1ccnc2ccc(-c3ccc(OC)cc3)cc12 [6-(4-methoxyphenyl)-N-(4-(4-methylpiperazin-1-yl)phenyl)-N-propylquinolin-4-amine]
MAPKAPK2 | CN1CCN(c2ccc(Nc3ccnc4ccc(-c5ccc(C#N)cc5)cc34)cn2)CC1 [4-(4-(6-(4-methylpiperazin-1-yl)pyridin-3-ylamino)quinolin-6-yl)benzonitrile]
MAPKAPK2 | CN1CCN(c2ccc(Nc3ccnc4ccc(-c5cncnc5)cc34)cc2)CC1 [N-(4-(4-methylpiperazin-1-yl)phenyl)-6-(pyrimidin-5-yl)quinolin-4-amine]
MAPKAPK2 | COCCN1CCN(c2ccc(Nc3ccnc4ccc(-c5ccc(C#N)cc5)cc34)cc2)CC1 [4-(4-(4-(4-(2-methoxyethyl)piperazin-1-yl)phenylamino)quinolin-6-yl)benzonitrile]
MAPKAPK2 | CN(C)C1CCN(c2ccc(Nc3ccnc4ccc(-c5nccs5)cc34)cc2)C1 (centres unmarked) [N-(4-(3-(dimethylamino)pyrrolidin-1-yl)phenyl)-6-(thiazol-2-yl)quinolin-4-amine]
MAPKAPK2 | CN(C)CC1CCCN1c1ccc(Nc2ccnc3ccc(-c4ccc(C#N)cc4)cc23)cc1 (centres unmarked) [4-(4-(4-(2-((dimethylamino)methyl)pyrrolidin-1-yl)phenylamino)quinolin-6-yl)benzonitrile]
MAPKAPK2 | COc1ccc(-c2ccc3nccc(Nc4ccc(N5CCC(N(C)C)C5)cc4)c3c2)cc1 (centres unmarked) [N-(4-(3-(dimethylamino)pyrrolidin-1-yl)phenyl)-6-(4-methoxyphenyl)quinolin-4-amine]
MAPKAPK2 | CN(C)CCN1CCN(c2ccc(Nc3ccnc4ccc(-c5ccccc5)cc34)cc2)CC1 [N-(4-(4-(2-(dimethylamino)ethyl)piperazin-1-yl)phenyl)-6-phenylquinolin-4-amine]
MAPKAPK2 | CC(=O)N1CCc2cc(-c3ccc4nccc(Nc5ccc(N6CCC(N(C)C)C6)cc5)c4c3)ccc21 (centres unmarked) [1-(5-(4-(4-(3-(dimethylamino)pyrrolidin-1-yl)phenylamino)quinolin-6-yl)indolin-1-yl)ethanone]
MAPKAPK2 | C=CCN1CCN(c2ccc(Nc3ccnc4ccc(-c5ccc(C#N)cc5)cc34)cc2)CC1 [4-(4-(4-(4-allylpiperazin-1-yl)phenylamino)quinolin-6-yl)benzonitrile]

SMILES | Activity
CN1CCC(c2ccc(Nc3ccnc4ccc(-c5ccc(C#N)cc5)cc34)cc2)CC1 [4-(4-(4-(1-methylpiperidin-4-yl)phenylamino)quinolin-6-yl)benzonitrile] | MAPKAPK2

Source: patent US7452887B2, “Quinoline- and isoquinoline-based compounds exhibiting ATP-utilizing enzyme inhibitory activity, and compositions, and uses thereof” (Amphora Discovery Corporation, priority 2004, dated 2008)
